Assay: molar heat capacity at constant pressure; xn = mol fraction of the nth substance listed
Settings: 101 kPa, Crystal, relaxation calorimetry - PPMS by Quantum Design

[Cl-].[K+] [potassium chloride] + [Cl-].[Na+]
Settings	molar heat capacity at constant pressure [J/K/mol]
5.041 K, x2 = 0.9	0.0176
5.086 K, x2 = 0.2	0.0361
5.095 K, x2 = 0.1	0.0387
5.409 K, x2 = 0.9	0.0219
5.454 K, x2 = 0.2	0.0452
5.458 K, x2 = 0.1	0.0485
5.793 K, x2 = 0.9	0.027
5.856 K, x2 = 0.2	0.0564
5.879 K, x2 = 0.1	0.0601
6.208 K, x2 = 0.9	0.0335
6.274 K, x2 = 0.2	0.07
6.294 K, x2 = 0.1	0.0738
6.664 K, x2 = 0.9	0.0417
6.728 K, x2 = 0.2	0.0878
6.752 K, x2 = 0.1	0.0936
7.14 K, x2 = 0.9	0.0518
7.176 K, x2 = 0.2	0.1084
7.188 K, x2 = 0.1	0.1141
7.653 K, x2 = 0.9	0.0641
7.691 K, x2 = 0.2	0.1356
7.702 K, x2 = 0.1	0.1425
8.202 K, x2 = 0.9	0.0801
8.238 K, x2 = 0.2	0.1702
8.252 K, x2 = 0.1	0.1787
8.791 K, x2 = 0.9	0.1001
8.829 K, x2 = 0.2	0.215
8.84 K, x2 = 0.1	0.2244
9.422 K, x2 = 0.9	0.1252
9.461 K, x2 = 0.2	0.2712
9.475 K, x2 = 0.1	0.2828
10.1 K, x2 = 0.9	0.157
10.14 K, x2 = 0.2	0.3435
10.15 K, x2 = 0.1	0.357
10.83 K, x2 = 0.9	0.198
10.87 K, x2 = 0.2	0.4354
10.89 K, x2 = 0.1	0.4512
11.61 K, x2 = 0.9	0.2499
11.65 K, x2 = 0.2	0.5511
11.67 K, x2 = 0.1	0.5685
12.45 K, x2 = 0.9	0.3169
12.48 K, x2 = 0.2	0.6946
12.5 K, x2 = 0.1	0.7153
13.34 K, x2 = 0.9	0.4021
13.38 K, x2 = 0.2	0.8732
13.4 K, x2 = 0.1	0.8969
14.23 K, x2 = 0.9	0.51
14.34 K, x2 = 0.2	1.092
14.36 K, x2 = 0.1	1.12
15.33 K, x2 = 0.9	0.6479
15.37 K, x2 = 0.2	1.362
15.39 K, x2 = 0.1	1.395
16.43 K, x2 = 0.9	0.8219
16.47 K, x2 = 0.2	1.691
16.49 K, x2 = 0.1	1.726
17.61 K, x2 = 0.9	1.04
17.65 K, x2 = 0.2	2.087
17.67 K, x2 = 0.1	2.125
18.87 K, x2 = 0.9	1.31
18.91 K, x2 = 0.2	2.55
18.94 K, x2 = 0.1	2.599
20.24 K, x2 = 0.9	1.649
20.26 K, x2 = 0.2	3.105
20.29 K, x2 = 0.1	3.156
21.7 K, x2 = 0.9	2.061
21.71 K, x2 = 0.2	3.756
21.74 K, x2 = 0.1	3.81
23.25 K, x2 = 0.9	2.563
23.26 K, x2 = 0.2	4.514
23.29 K, x2 = 0.1	4.578
24.92 K, x2 = 0.9	3.165
24.93 K, x2 = 0.2	5.396
24.96 K, x2 = 0.1	5.463
26.71 K, x2 = 0.9	3.859
26.72 K, x2 = 0.2	6.429
26.74 K, x2 = 0.1	6.508
28.63 K, x2 = 0.2	7.596
28.64 K, x2 = 0.9	4.716
28.66 K, x2 = 0.1	7.674
30.69 K, x2 = 0.2	8.768
30.7 K, x2 = 0.9	5.671
30.71 K, x2 = 0.1	8.824
32.89 K, x2 = 0.2	10.16
32.9 K, x2 = 0.9	6.785
32.91 K, x2 = 0.1	10.29
35.25 K, x2 = 0.2	11.67
35.27 K, x2 = 0.9	8.039
35.28 K, x2 = 0.1	11.82
37.78 K, x2 = 0.2	13.3
37.81 K, x2 = 0.1	13.48
37.81 K, x2 = 0.9	9.437
40.5 K, x2 = 0.2	15.06
40.52 K, x2 = 0.1	15.25
40.53 K, x2 = 0.9	10.98
43.41 K, x2 = 0.2	16.89
43.43 K, x2 = 0.1	17.11
43.45 K, x2 = 0.9	12.63
46.53 K, x2 = 0.2	18.81
46.57 K, x2 = 0.1	19.04
46.58 K, x2 = 0.9	14.4
49.87 K, x2 = 0.2	20.73
49.91 K, x2 = 0.1	21.01
49.93 K, x2 = 0.9	16.28
53.47 K, x2 = 0.2	22.73
53.5 K, x2 = 0.1	23
53.53 K, x2 = 0.9	18.23
57.32 K, x2 = 0.2	24.73
57.34 K, x2 = 0.1	25.02
57.38 K, x2 = 0.9	20.25
61.44 K, x2 = 0.2	26.7
61.47 K, x2 = 0.1	26.98
61.51 K, x2 = 0.9	22.26
65.86 K, x2 = 0.2	28.67
65.89 K, x2 = 0.1	28.95
65.94 K, x2 = 0.9	24.31
70.6 K, x2 = 0.2	30.6
70.63 K, x2 = 0.1	30.88
70.69 K, x2 = 0.9	26.32
75.67 K, x2 = 0.2	32.39
75.7 K, x2 = 0.1	32.61
75.77 K, x2 = 0.9	28.27
81.11 K, x2 = 0.2	34.17
81.13 K, x2 = 0.1	34.4
81.21 K, x2 = 0.9	30.13
86.93 K, x2 = 0.2	35.85
86.95 K, x2 = 0.1	36.07
87.05 K, x2 = 0.9	32.29
93.14 K, x2 = 0.1	37.49
93.15 K, x2 = 0.2	37.32
93.3 K, x2 = 0.9	34.01
99.83 K, x2 = 0.1	39.05
99.85 K, x2 = 0.2	38.84
100.02 K, x2 = 0.9	35.79
107.02 K, x2 = 0.1	40.33
107.03 K, x2 = 0.2	40.15
107.21 K, x2 = 0.9	37.38
114.72 K, x2 = 0.1	41.63
114.72 K, x2 = 0.2	41.45
114.92 K, x2 = 0.9	38.92
122.97 K, x2 = 0.1	42.71
122.97 K, x2 = 0.2	42.57
123.18 K, x2 = 0.9	40.27
131.81 K, x2 = 0.1	43.7
131.82 K, x2 = 0.2	43.53
132.04 K, x2 = 0.9	41.45
141.3 K, x2 = 0.1	44.69
141.3 K, x2 = 0.2	44.51
141.54 K, x2 = 0.9	42.61
151.45 K, x2 = 0.2	45.39
151.46 K, x2 = 0.1	45.56
151.71 K, x2 = 0.9	43.67
162.35 K, x2 = 0.2	46.18
162.37 K, x2 = 0.1	46.3
162.61 K, x2 = 0.9	44.81
174.02 K, x2 = 0.2	46.93
174.06 K, x2 = 0.1	47.07
174.32 K, x2 = 0.9	45.52
186.55 K, x2 = 0.2	47.5
186.58 K, x2 = 0.1	47.69
186.88 K, x2 = 0.9	46.21
199.96 K, x2 = 0.2	48.19
199.99 K, x2 = 0.1	48.31
200.33 K, x2 = 0.9	47.11
214.35 K, x2 = 0.2	48.72
214.36 K, x2 = 0.1	48.85
214.74 K, x2 = 0.9	47.78
229.74 K, x2 = 0.2	49.19
229.76 K, x2 = 0.1	49.26
230.17 K, x2 = 0.9	48.37
246.25 K, x2 = 0.2	49.8
246.27 K, x2 = 0.1	49.83
246.73 K, x2 = 0.9	49.07
263.91 K, x2 = 0.2	50.18
263.93 K, x2 = 0.1	50.3
264.44 K, x2 = 0.9	49.55
282.86 K, x2 = 0.2	50.68
282.87 K, x2 = 0.1	50.88
283.42 K, x2 = 0.9	50.22
303.12 K, x2 = 0.2	51.21
303.18 K, x2 = 0.1	51.27
303.77 K, x2 = 0.9	50.61
